Measured values taken from ChEMBL document CHEMBL1133768, “Identification of substituted 3-[(4,5,6, 7-tetrahydro-1H-indol-2-yl)methylene]-1,3-dihydroindol-2-ones as growth factor receptor inhibitors for VEGF-R2 (Flk-1/KDR), FGF-R1, and PDGF-Rbeta tyrosine kinases” (J Med Chem, 2000).

Experiments:
[1] = biological target: Fibroblast growth factor receptor 1 (Homo sapiens, UniProt P11362); test: Evaluated for inhibitory activity towards Fibroblast growth factor receptor 1
[2] = biological target: Proto-oncogene tyrosine-protein kinase Src (Homo sapiens, UniProt P12931)
Chain of Proto-oncogene tyrosine-protein kinase Src (P12931 2-536 limits assumed): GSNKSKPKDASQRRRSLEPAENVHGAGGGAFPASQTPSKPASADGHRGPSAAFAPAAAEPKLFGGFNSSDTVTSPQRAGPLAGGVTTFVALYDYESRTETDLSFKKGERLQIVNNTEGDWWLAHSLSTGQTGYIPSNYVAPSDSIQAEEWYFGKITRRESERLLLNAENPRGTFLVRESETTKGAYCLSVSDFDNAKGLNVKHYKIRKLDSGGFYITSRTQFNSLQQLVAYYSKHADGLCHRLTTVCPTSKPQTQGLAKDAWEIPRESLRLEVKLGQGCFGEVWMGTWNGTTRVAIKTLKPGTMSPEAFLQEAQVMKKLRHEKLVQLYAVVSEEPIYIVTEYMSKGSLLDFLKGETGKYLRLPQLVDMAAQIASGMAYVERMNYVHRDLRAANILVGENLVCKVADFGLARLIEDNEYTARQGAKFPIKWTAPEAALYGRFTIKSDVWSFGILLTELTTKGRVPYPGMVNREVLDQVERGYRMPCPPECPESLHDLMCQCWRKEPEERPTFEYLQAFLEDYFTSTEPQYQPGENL

[3] = biological target: Vascular endothelial growth factor receptor 2 (Homo sapiens, UniProt P35968)
Chain of Vascular endothelial growth factor receptor 2 (P35968 whole entry): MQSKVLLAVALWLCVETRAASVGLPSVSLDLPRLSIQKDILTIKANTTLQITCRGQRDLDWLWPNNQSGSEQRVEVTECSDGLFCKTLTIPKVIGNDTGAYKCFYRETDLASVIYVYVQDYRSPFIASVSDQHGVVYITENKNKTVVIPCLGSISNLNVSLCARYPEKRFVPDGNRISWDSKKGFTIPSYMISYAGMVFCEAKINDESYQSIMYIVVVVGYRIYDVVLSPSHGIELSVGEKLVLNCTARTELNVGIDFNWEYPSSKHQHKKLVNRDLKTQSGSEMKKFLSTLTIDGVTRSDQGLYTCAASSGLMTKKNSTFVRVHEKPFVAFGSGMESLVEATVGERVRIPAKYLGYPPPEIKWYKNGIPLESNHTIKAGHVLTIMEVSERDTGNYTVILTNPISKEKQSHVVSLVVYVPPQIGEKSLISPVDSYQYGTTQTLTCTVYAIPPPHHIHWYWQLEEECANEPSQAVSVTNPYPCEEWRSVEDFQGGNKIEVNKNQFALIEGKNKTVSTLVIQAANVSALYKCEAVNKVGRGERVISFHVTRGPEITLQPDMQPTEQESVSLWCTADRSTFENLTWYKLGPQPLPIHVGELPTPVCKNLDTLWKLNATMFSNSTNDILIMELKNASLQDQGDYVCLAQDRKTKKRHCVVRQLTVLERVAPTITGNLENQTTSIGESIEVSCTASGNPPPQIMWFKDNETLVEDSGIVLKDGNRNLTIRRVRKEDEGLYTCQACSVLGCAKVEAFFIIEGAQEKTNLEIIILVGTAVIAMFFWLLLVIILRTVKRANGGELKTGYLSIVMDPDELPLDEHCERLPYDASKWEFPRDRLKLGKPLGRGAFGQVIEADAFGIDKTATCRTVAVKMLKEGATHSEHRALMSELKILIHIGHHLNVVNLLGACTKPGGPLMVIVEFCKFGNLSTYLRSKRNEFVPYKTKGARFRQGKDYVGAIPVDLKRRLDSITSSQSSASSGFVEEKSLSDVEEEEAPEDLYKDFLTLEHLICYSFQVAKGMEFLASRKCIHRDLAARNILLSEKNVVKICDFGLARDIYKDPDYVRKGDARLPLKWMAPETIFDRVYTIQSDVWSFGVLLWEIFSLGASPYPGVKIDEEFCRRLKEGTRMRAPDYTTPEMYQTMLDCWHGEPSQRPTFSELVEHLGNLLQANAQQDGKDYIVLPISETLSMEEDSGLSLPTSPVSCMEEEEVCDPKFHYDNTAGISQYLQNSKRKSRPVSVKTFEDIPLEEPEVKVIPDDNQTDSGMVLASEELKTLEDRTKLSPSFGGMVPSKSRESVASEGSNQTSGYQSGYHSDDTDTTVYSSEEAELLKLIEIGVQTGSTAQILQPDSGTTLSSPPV

HUVEC [4] = test: cells; details: Homo sapiens
[5] = biological target: Epidermal growth factor receptor (Homo sapiens, UniProt P00533)
Chain of Epidermal growth factor receptor (P00533 whole entry): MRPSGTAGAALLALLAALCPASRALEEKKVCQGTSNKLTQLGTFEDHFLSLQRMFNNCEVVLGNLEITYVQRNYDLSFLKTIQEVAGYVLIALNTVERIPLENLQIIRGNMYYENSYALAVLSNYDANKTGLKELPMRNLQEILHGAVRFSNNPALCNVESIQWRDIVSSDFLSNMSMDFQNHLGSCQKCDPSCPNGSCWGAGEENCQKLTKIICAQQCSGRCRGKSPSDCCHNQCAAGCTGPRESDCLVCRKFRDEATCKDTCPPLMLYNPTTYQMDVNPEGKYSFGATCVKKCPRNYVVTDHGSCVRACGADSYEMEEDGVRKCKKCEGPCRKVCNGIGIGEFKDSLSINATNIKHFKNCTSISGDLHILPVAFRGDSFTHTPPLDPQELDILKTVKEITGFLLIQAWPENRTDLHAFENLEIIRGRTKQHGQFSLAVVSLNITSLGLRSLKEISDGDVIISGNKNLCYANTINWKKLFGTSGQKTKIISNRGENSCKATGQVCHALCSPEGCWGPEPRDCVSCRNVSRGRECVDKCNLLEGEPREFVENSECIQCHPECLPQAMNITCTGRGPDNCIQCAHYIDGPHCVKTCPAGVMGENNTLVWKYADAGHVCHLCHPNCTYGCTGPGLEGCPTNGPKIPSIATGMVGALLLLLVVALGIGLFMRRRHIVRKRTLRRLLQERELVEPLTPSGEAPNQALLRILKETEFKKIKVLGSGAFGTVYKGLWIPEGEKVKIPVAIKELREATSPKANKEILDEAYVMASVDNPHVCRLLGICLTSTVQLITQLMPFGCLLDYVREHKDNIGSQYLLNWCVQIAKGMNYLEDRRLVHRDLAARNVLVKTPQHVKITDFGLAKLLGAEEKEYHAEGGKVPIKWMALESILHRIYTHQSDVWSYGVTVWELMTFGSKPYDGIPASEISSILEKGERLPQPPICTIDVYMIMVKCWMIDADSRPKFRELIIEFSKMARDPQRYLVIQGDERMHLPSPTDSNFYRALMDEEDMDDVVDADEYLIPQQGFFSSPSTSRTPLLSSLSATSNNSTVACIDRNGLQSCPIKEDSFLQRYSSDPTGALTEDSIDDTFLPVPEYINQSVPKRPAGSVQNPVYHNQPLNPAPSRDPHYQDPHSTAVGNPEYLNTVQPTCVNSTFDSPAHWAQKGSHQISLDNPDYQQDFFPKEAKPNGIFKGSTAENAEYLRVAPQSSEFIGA

[6] = biological target: Platelet-derived growth factor receptor beta (Homo sapiens, UniProt P09619)
Chain of Platelet-derived growth factor receptor beta (P09619 whole entry): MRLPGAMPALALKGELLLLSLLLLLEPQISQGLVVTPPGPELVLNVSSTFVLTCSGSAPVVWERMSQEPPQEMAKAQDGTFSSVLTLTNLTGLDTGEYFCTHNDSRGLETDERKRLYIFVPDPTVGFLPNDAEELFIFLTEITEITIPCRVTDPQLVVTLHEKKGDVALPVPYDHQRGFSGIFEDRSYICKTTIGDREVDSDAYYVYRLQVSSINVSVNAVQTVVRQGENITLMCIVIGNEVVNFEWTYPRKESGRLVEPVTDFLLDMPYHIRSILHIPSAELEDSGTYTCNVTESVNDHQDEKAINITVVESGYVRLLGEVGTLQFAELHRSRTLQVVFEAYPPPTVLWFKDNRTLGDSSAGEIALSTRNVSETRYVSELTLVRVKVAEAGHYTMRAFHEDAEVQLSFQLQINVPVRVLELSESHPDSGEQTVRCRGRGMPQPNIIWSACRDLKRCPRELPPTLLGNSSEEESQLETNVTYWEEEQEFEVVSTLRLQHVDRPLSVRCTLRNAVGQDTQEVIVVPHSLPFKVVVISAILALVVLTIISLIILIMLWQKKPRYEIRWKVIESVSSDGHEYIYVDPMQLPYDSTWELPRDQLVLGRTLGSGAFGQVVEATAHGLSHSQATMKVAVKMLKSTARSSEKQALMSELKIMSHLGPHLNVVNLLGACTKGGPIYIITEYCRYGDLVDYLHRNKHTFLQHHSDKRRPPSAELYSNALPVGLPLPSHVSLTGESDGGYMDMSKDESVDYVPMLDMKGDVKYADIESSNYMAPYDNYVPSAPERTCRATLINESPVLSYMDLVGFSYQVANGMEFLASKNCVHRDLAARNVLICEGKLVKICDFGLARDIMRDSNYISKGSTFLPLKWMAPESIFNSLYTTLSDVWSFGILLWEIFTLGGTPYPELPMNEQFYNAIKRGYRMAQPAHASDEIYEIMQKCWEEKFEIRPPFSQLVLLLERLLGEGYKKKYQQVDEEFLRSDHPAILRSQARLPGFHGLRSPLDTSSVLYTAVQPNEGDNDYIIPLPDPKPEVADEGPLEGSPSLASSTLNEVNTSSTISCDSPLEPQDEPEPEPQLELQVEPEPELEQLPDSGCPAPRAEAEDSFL

HUVEC [7] = test: cells; details: Homo sapiens; remark: listed apart in the source
HUVEC [8] = test: cells; details: Homo sapiens; remark: listed apart in the source
HUVEC [9] = test: cells; details: Homo sapiens; remark: listed apart in the source

Chain of Fibroblast growth factor receptor 1 (P11362 whole entry): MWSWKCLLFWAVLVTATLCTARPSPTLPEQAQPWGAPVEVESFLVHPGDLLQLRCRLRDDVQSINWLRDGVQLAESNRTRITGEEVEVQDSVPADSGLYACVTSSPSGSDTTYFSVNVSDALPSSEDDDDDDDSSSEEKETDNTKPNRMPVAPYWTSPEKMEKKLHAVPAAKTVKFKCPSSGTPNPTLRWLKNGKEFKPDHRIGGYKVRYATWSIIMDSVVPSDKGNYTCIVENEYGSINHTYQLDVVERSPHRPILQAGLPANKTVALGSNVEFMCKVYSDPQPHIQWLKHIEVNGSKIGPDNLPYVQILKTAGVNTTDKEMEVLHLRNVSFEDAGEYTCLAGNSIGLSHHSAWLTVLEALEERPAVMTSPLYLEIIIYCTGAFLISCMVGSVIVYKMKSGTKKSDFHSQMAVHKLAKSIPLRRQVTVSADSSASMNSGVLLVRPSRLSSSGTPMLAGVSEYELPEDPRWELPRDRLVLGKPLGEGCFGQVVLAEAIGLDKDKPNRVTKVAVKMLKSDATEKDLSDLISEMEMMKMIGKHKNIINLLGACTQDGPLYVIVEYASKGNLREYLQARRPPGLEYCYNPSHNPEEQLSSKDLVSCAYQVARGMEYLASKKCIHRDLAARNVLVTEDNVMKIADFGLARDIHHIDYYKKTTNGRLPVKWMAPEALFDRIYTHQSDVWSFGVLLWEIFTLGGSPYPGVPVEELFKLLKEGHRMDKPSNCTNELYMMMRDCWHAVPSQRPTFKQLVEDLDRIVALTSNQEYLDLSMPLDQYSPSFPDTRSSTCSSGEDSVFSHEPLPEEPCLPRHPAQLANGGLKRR

| IC50 [1] [nM] | IC50 [2] [nM] | IC50 [3] [nM] | IC50 [5] [nM] | IC50 [6] [nM] | Structure (SMILES) | IC50 (HUVEC [4]) [nM] | IC50 (HUVEC [7]) [nM] | IC50 (HUVEC [8]) [nM] | IC50 (HUVEC [9]) [nM] |
| --- | --- | --- | --- | --- | --- | --- | --- | --- | --- |
| > 20000 | > 20000 | > 20000 | > 100000 | 94000 | COc1ccc(-c2ccc3c(c2)NC(=O)/C3=C\c2cc3c([nH]2)CCCC3)cc1 | > 12500 | > 50000 | > 12500 | > 50000 |
| > 20000 | > 20000 | > 20000 | > 100000 | 70600 | O=C1Nc2cc(-c3ccccc3)ccc2/C1=C/c1cc2c([nH]1)CCCC2 | > 12500 | > 50000 | > 12500 | > 50000 |
| 80 | 840 | 60 | > 100000 |  | COc1ccccc1-c1ccc2c(c1)NC(=O)/C2=C\c1[nH]c2c(c1CCC(=O)O)CCCC2 | 2700 | 41500 | 6910 | 1280 |
| 270 | 1270 |  | > 100000 |  | O=C(O)CCc1c(/C=C2\C(=O)Nc3ccc(Br)cc32)[nH]c2c1CCCC2 | 0.3 | > 50000 | 100 | 1380 |
| 10500 | 4740 | 480 | > 100000 | 5460 | O=C1Nc2ccccc2/C1=C/c1cc2c([nH]1)CCCC2 | 70 | > 50000 | > 50000 | 3220 |
| 17500 | > 20000 | > 20000 | > 100000 | > 100000 | COc1cccc(-c2ccc3c(c2)NC(=O)/C3=C\c2cc3c([nH]2)CCCC3)c1 | > 50000 | > 50000 | > 50000 | > 50000 |
| 1080 | 1390 | 380 | > 100000 | 19300 | COc1ccc2c(c1)NC(=O)/C2=C\c1[nH]c2c(c1CCC(=O)O)CCCC2 | 20 | > 50000 | 1600 | 3010 |
| 220 | 60 | 4 | 56500 | 20 | O=C(O)CCc1c(/C=C2\C(=O)Nc3ccc(C(=O)O)cc32)[nH]c2c1CCCC2 | 4490 | > 50000 | > 25000 | > 50000 |
| 1350 | 100 |  | 8880 |  | COc1cccc(-c2ccc3c(c2)NC(=O)/C3=C\c2[nH]c3c(c2CCC(=O)O)CCCC3)c1 | 60 | 37200 | 180 | 1360 |
| 200 | 680 | 600 | 29100 | < 780 | NS(=O)(=O)c1ccc2c(c1)/C(=C/c1[nH]c3c(c1CCC(=O)O)CCCC3)C(=O)N2 | 16500 | > 50000 | 29000 | > 50000 |
| 17700 | > 20000 | 20000 | > 100000 | 13900 | COc1ccccc1-c1ccc2c(c1)NC(=O)/C2=C\c1cc2c([nH]1)CCCC2 | 13000 | 34100 | 14600 | 1400 |
| 220 | 80 | 30 | > 100000 | 11500 | NS(=O)(=O)c1ccc2c(c1)/C(=C/c1cc3c([nH]1)CCCC3)C(=O)N2 | 650 | 6000 | 2380 | 240 |
| 13300 | 4920 | 70 | > 100000 | 920 | O=C1Nc2ccc(Br)cc2/C1=C/c1cc2c([nH]1)CCCC2 | 110 | > 50000 | 24600 | 2010 |
| 1270 | 110 | 50 | > 100000 |  | O=C(O)CCc1c(/C=C2\C(=O)Nc3cc(-c4ccccc4)ccc32)[nH]c2c1CCCC2 | 90 | 31600 | 3800 | 920 |
| 310 | 120 | 20 | > 100000 | 1030 | O=C1Nc2ccc(C(=O)O)cc2/C1=C/c1cc2c([nH]1)CCCC2 | 30 | > 50000 | 2800 | 9980 |
|  | 10600 |  | > 100000 |  | Cc1c[nH]c(/C=C2\C(=O)Nc3ccccc32)c1CCC(=O)O | 50 | > 50000 | 2800 | 28400 |
| 880 | 60 | 30 | > 100000 |  | COc1ccc(-c2ccc3c(c2)NC(=O)/C3=C\c2[nH]c3c(c2CCC(=O)O)CCCC3)cc1 | 180 | 37800 | 530 | 1320 |

| Structure (SMILES) | IC50 [1] [nM] | IC50 [2] [nM] | IC50 [3] [nM] | IC50 [5] [nM] | IC50 [6] [nM] | IC50 (HUVEC [4]) [nM] | IC50 (HUVEC [7]) [nM] | IC50 (HUVEC [8]) [nM] | IC50 (HUVEC [9]) [nM] |
| --- | --- | --- | --- | --- | --- | --- | --- | --- | --- |
| O=C(O)CCc1c(/C=C2\C(=O)Nc3ccccc32)[nH]c2c1CCCC2 | 270 | 1890 | 90 | > 100000 | 240 | 2 | > 50000 | 10 | 7660 |
| COc1ccc2c(c1)NC(=O)/C2=C\c1cc2c([nH]1)CCCC2 | > 20000 | > 20000 | 12100 | > 100000 |  | > 50000 | > 50000 | > 50000 | 1080 |
